In publication PMC3608651, “A Broad Profile of Co-Dominant Epitopes Shapes the Peripheral Mycobacterium tuberculosis Specific CD8+ T-Cell Immune Response in South African Patients with Active Tuberculosis” (PLoS ONE, 2013):
Like-named read-outs stand apart in the source and are kept apart here.

Tests used:
Assay type in all cases: binding
HLA-A*02:01 [1] = biological target: T1, HLA-A*02:01 (Homo sapiens, UniProt P04439, D140Y/D185E/D98H/E176V/E277Q/G131W/G231S/I119V/I121R/I166T/I218V/L300P/L318F/N151K/N90K/P208A/P217A/Q86G/Q94H/R138H/R169H/T345S)
HLA-A*68:01 [2] = biological target: T2, HLA-A*68:01 (Homo sapiens, UniProt P04439, A269V/D185E/E176V/E277Q/E87N/F33Y/G231S/I121M/I166T/I218V/L180W/L300P/L318F/N151K/P208A/P217A/Q86R/R169H/T345S); conditions: percent relative the binding of positive control peptide […]; duplicated experiments; positive binder >40%
HLA-A*02:01 [3] = biological target: T1, HLA-A*02:01; remark: listed apart in the source
HLA-C*07:01 [4] = biological target: T3, HLA-C*07:01 (Homo sapiens, UniProt P10321, K90N/S123Y); assay: off-rate assay (t1/2); conditions: time points 0-8 h
HLA-A*02:01 [5] = biological target: T1, HLA-A*02:01; remark: listed apart in the source
HLA-B*07:02 = HLA-B*07:02 (Homo sapiens, UniProt P01889)
HLA-A*30:01 = HLA-A*30:01 (Homo sapiens, UniProt P04439, D140H/D185E/E176W/F33S/G80R/H175R/K168Q/R138E/R41S); conditions: percent relative the binding of positive control peptide […]; duplicated experiments; positive binder >40%
HLA-A*30:02 [6] = biological target: T4, HLA-A*30:02 (Homo sapiens, UniProt P04439, D101N/D140H/D185E/E176R/F33S/G80R/H175R/K168Q/Q94H/R138E/R41S/V100E); conditions: percent relative the binding of positive control peptide […]; duplicated experiments; positive binder >40%
HLA-B*58:01 [7] = biological target: T5, HLA-B*58:01 (Homo sapiens, UniProt P01889, A329T/C349S/D201E/D98Y/E176V/E187L/E204Q/E69T/G107R/I218V/I90N/K202T/L105A/L119I/N104I/N87E/Q89R/Q94S/R106L/R155S/R180L/R86G/S101N/S121R/S35A/S48A/T118I/V127L/V306I/V36M/Y140S/Y91M); conditions: time points 0-8 h
HLA-A*24:02 [8] = biological target: T6, HLA-A*24:02 (Homo sapiens, UniProt P04439, D101N/D140Y/D185E/E176V/E190D/F33S/G103R/G107R/I119L/I121M/I306V/K335N/L105A/L180Q/L300P/N151K/N90K/Q86E/Q94H/R106L/R138H/R89G/T104I/T345S/V100E/W191G/Y123F)
HLA-B*58:01 [9] = biological target: T5, HLA-B*58:01; conditions: percent relative the binding of positive control peptide […]; duplicated experiments; positive binder >40%
HLA-C*07:01 [10] = biological target: T3, HLA-C*07:01; conditions: percent relative the binding of positive control peptide […]; duplicated experiments; positive binder >40%
HLA-B*58:01 [11] = biological target: T5, HLA-B*58:01
HLA-C*07:01 [12] = biological target: T3, HLA-C*07:01; assay: affinity assay (ED50)
HLA-A*30:02 [13] = biological target: T4, HLA-A*30:02; conditions: time points 0-8 h
HLA-A*30:02 [14] = biological target: T4, HLA-A*30:02
HLA-A*68:01 [15] = biological target: T2, HLA-A*68:01
HLA-A*68:01 [16] = biological target: T2, HLA-A*68:01; conditions: time points 0-8 h
HLA-A*24:02 [17] = biological target: T6, HLA-A*24:02; remark: listed apart in the source
HLA-A*24:02 [18] = biological target: T6, HLA-A*24:02; remark: listed apart in the source
[19] = percent relative the binding of positive control peptide […], plate-bound monomer 0.5 µg/ml, duplicated experiments, positive binder >40%
[20] = percent relative the binding of positive control peptide […], duplicated experiments, positive binder >40%

Substance	Bind A*02:01 (HLA-A*02:01 [1]; [19]) [%]	Bind A*68:01 (HLA-A*68:01 [2]) [%]	O-rate C*07:01 (t1/2) (HLA-C*07:01 [4]) [min]	Bind B*07:02 (HLA-B*07:02; [20]) [%]	Bind A*30:01 (HLA-A*30:01) [%]	Bind A*30:02 (HLA-A*30:02 [6]) [%]	O-rate B*58:01 (t1/2) (HLA-B*58:01 [7]) [min]	Bind A*24:02 (HLA-A*24:02 [8]; [20]) [%]	Bind B*58:01 (HLA-B*58:01 [9]) [%]	Bind C*07:01 (HLA-C*07:01 [10]) [%]	Aff B*58:01 (ED50) (HLA-B*58:01 [11])	Aff C*07:01 (ED50) (HLA-C*07:01 [12])	O-rate A*30:02 (t1/2) (HLA-A*30:02 [13]) [min]	Aff A*30:02 (ED50) (HLA-A*30:02 [14])	Aff A*68:01 (ED50) (HLA-A*68:01 [15])	O-rate A*68:01 (t1/2) (HLA-A*68:01 [16]) [min]	other results
MAGSSAMIL	54	0	30	57	0	13	48	26	55	94	9e-09 M	1E -08 M					Aff A*02:01 (ED50) (HLA-A*02:01 [3]; […], peptide quantity for 50% binding saturation): 700 nM; O-rate A*02:01 (t1/2) (HLA-A*02:01 [5]; time points 0-8 h, time when 50% of peptide has dissociated): 24 min
FVRSSNLKF	15	45	84	114	0	94		81	12	76		2E -08 M	114	8E -06 M	8e-08 M	6	
YQSGLSIVM		7	18		27	123			0	68		7E -09 M	24	8E -07 M			Bind A*02:01 (HLA-A*02:01 [1]): 142; Aff A*02:01 (ED50) (HLA-A*02:01 [3]): 50 nM; O-rate A*02:01 (t1/2) (HLA-A*02:01 [5]): 186 min; Bind B*07:02 (HLA-B*07:02): 2; Bind A*24:02 (HLA-A*24:02 [8]): 59; Aff A*24:02 (ED50) (HLA-A*24:02 [17]): 500 nM; O-rate A*24:02 (t1/2) (HLA-A*24:02 [18]): 90 min
I NT P AF E WY	0	9	60	2	10	132	30	20	54	41	5e-07 M	6E -07 M	114	7E -07 M			
RAVKPT GSA	19	10	84	84	4	18	18	0	72	82	5E -07 M	2E -07 M					
NTPAFEWYY	0	69	54	0	6	99		0	36	48		8e-09 M	90	2e-08 M	1E -07 M	12	
SSAMILAAY	0	101	96	4	0	118	48	36	90	41	2E -08 M	4E -07 M	216	7E -09 M	1E -07 M	108	
